# Earlier results in patent US8709720B2, “Methods and kits for predicting the responsiveness of hepatocellular carcinoma patients to 5-fluorouracil-based combination chemotherapy” (priority 2012, dated 2014).
# Test system: advanced HCC
# Settings: advanced HCC patients, prior research / clinical trials
smiles,measurement,value
COc1cccc2c1C(=O)c1c(O)c3c(c(O)c1C2=O)C[C@@](O)(C(=O)CO)C[C@@H]3O[C@H]1C[C@H](N)[C@H](O)[C@H](C)O1 [doxorubicin],response rate,32%
